In patent US12077503B2, “Substituted cyclic amides and their use as herbicides” (FMC CORPORATION, priority 2015, dated 2024):
Read-outs that look alike come from different tables or passages of the source.

Experiments:
Format in all cases: in vivo
rice (Oryra sativa) = experiment: Test B flooded paddy test; conditions: Oryza sativa, 250 g ai/ha, Flood; 0 to 100 scale where 0 is no effect and 100 is complete control; read-out: Rice plant response rating
Summary of the method: (§1)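 Percent control, visually estimated after 13–15 d in the greenhouse on a 0–100 basis, compares treated pots with untreated ones; compound was put into paddy water 3 cm above the soil when plants had two leaves.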

[1] = system: sedge, umbrella (small-flower umbrella sedge, Cyperus difformis); experiment: Test B flooded paddy test; conditions: Cyperus difformis, 250 g ai/ha, Flood; 0 to 100 scale where 0 is no effect and 100 is complete control; read-out: Sedge, Umbrella plant response rating
Summary of the method: as §1

[2] = system: barnyardgrass (Echinochloa crus-galli); experiment: Test B flooded paddy test; conditions: Echinochloa crus-galli, 250 g ai/ha, Flood; 0 to 100 scale where 0 is no effect and 100 is complete control; read-out: Barnyardgrass plant response rating
Summary of the method: as §1

[3] = system: ducksalad (Heteranthera limosa); experiment: Test B flooded paddy test; conditions: Heteranthera limosa, 250 g ai/ha, Flood; 0 to 100 scale where 0 is no effect and 100 is complete control; read-out: Ducksalad plant response rating
Summary of the method: as §1

[4] = system: ragweed (common ragweed, Ambrosia elatior); experiment: Test A postemergence; conditions: Ambrosia artemisiifolia, post-emergence, 240 h; for pest or weed control at 125 g/ha: 125 g ai/ha, read-out: Ragweed plant response rating (0 to 100 scale); for pest or weed control at 500 g/ha: 500 g ai/ha
Summary of the method: (§2)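 Ratings of 0 (no effect) to 100 (complete control) come from visual comparison with untreated controls roughly 10 d after treatment. Test chemicals, formulated in a non-phytotoxic solvent mixture with surfactant, were applied either as a preemergence directed soil spray on seeded soil or postemergence to one- to two-leaf plants 2 to 10 cm tall.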

corn (Zea mays) = experiment: Test A postemergence; conditions: Zea mays, post-emergence, 240 h; for plant injury at 125 g/ha: 125 g ai/ha, read-out: Corn plant response rating (0 to 100 scale)
Summary of the method: as §2

Kochia (Kochia scoparia) = experiment: Test A postemergence; conditions: Bassia scoparia, post-emergence, 240 h; for pest or weed control at 125 g/ha: 125 g ai/ha, read-out: Kochia plant response rating (0 to 100 scale); for pest or weed control at 500 g/ha: 500 g ai/ha
Summary of the method: as §2

[5] = system: giant foxtail (Setaria faberii); experiment: Test A postemergence; conditions: Setaria faberi, post-emergence, 240 h; for pest or weed control at 125 g/ha: 125 g ai/ha, read-out: Foxtail, Giant plant response rating (0 to 100 scale); for pest or weed control at 500 g/ha: 500 g ai/ha
Summary of the method: as §2

[6] = system: pigweed (Amaranthus retroflexus); experiment: Test A postemergence; conditions: Amaranthus retroflexus, post-emergence, 240 h; for pest or weed control at 125 g/ha: 125 g ai/ha, read-out: Pigweed plant response rating (0 to 100 scale); for pest or weed control at 500 g/ha: 500 g ai/ha
Summary of the method: as §2

[7] = system: ryegrass, Italian (Italian ryegrass, Lolium multiflorum); experiment: Test A postemergence; conditions: Lolium multiflorum, post-emergence, 240 h; for pest or weed control at 125 g/ha: 125 g ai/ha, read-out: Ryegrass, Italian plant response rating (0 to 100 scale); for pest or weed control at 500 g/ha: 500 g ai/ha
Summary of the method: as §2

[8] = system: wheat (Triticum aestivum); experiment: Test A postemergence; conditions: Triticum aestivum, post-emergence, 240 h; for plant injury at 125 g/ha: 125 g ai/ha, read-out: Wheat plant response rating (0 to 100 scale)
Summary of the method: as §2

[9] = system: blackgrass (Alopecurus myosuroides); experiment: Test A postemergence; conditions: Alopecurus myosuroides, post-emergence, 240 h; for pest or weed control at 125 g/ha: 125 g ai/ha, read-out: Blackgrass plant response rating (0 to 100 scale); for pest or weed control at 500 g/ha: 500 g ai/ha
Summary of the method: as §2

[10] = system: Galium (catchweed bedstraw, Galium aparine); experiment: Test A postemergence; conditions: Galium, post-emergence, 240 h; for pest or weed control at 125 g/ha: 125 g ai/ha, read-out: Galium plant response rating (0 to 100 scale); for pest or weed control at 500 g/ha: 500 g ai/ha
Summary of the method: as §2

[11] = system: barnyardgrass (Echinochloa crus-galli); experiment: Test A postemergence; conditions: Echinochloa crus-galli, post-emergence, 240 h; for pest or weed control at 125 g/ha: 125 g ai/ha; for pest or weed control at 500 g/ha: 500 g ai/ha
Summary of the method: as §2

[12] = Postemergence, visual rating about 10 d after treatment
[13] = postemergence, visual injury vs untreated controls after approx. 10 d, 0 = no effect, 100 = complete control

## Cc1nc([C@H]2CN(C)C(=O)[C@@H]2C(=O)Nc2cccc(F)c2F)cs1 [Compound 1281]
Rice (Oryra sativa)
  pest or weed control at 250 g/ha: 0%
[1]
  pest or weed control at 250 g/ha: 0%
[2]
  pest or weed control at 250 g/ha: 0%
[3]
  pest or weed control at 250 g/ha: 50%
[4]; [12]
  pest or weed control at 125 g/ha: 0%
[4]; Postemergence, visual injury, 0 to 100 scale (0 no effect, 100 complete control), approx. 10 d, read-out: Plant response rating, Ragweed
  pest or weed control at 500 g/ha: 0%
Corn (Zea mays); [12]
  plant injury at 125 g/ha: 0%
Corn (Zea mays); Postemergence, 500 g ai/ha, visual injury, 0 to 100 scale (0 no effect, 100 complete control), approx. 10 d
  Corn plant response rating (crop injury, 0 = no effect, 100 = complete kill) at 500 g/ha: 0%
Kochia (Kochia scoparia); [12]
  pest or weed control at 125 g/ha: 0%
Kochia (Kochia scoparia); Postemergence, visual injury, 0 to 100 scale (0 no effect, 100 complete control), approx. 10 d, read-out: Plant response rating, Kochia
  pest or weed control at 500 g/ha: 30%
[5]; [12]
  pest or weed control at 125 g/ha: 20%
[5]; Postemergence, visual injury, 0 to 100 scale (0 no effect, 100 complete control), approx. 10 d, read-out: Plant response rating, Foxtail, Giant
  pest or weed control at 500 g/ha: 30%
[6]; [12]
  pest or weed control at 125 g/ha: 0%
[6]; Postemergence, visual injury, 0 to 100 scale (0 no effect, 100 complete control), approx. 10 d, read-out: Plant response rating, Pigweed
  pest or weed control at 500 g/ha: 0%
[7]; [12]
  pest or weed control at 125 g/ha: 0%
[7]; Postemergence, visual injury, 0 to 100 scale (0 no effect, 100 complete control), approx. 10 d, read-out: Plant response rating, Ryegrass, Italian
  pest or weed control at 500 g/ha: 0%
[8]; [12]
  plant injury at 125 g/ha: 0%
[8]; Postemergence, 500 g ai/ha, visual injury, 0 to 100 scale (0 no effect, 100 complete control), approx. 10 d, read-out: Plant response rating, Wheat
  plant injury at 500 g/ha: 0%
[9]; [12]
  pest or weed control at 125 g/ha: 0%
[9]; Postemergence, visual injury, 0 to 100 scale (0 no effect, 100 complete control), approx. 10 d, read-out: Plant response rating, Blackgrass
  pest or weed control at 500 g/ha: 0%
[10]; [12]
  pest or weed control at 125 g/ha: 0%
[10]; Postemergence, visual injury, 0 to 100 scale (0 no effect, 100 complete control), approx. 10 d, read-out: Plant response rating, Galium
  pest or weed control at 500 g/ha: 50%
[11]; Postemergence, visual rating about 10 d after treatment, read-out: Barnyardgrass plant response rating (0 to 100 scale, 0 no effect, 100 complete control)
  pest or weed control at 125 g/ha: 20%
[11]; Postemergence, visual injury, 0 to 100 scale (0 no effect, 100 complete control), approx. 10 d, read-out: Plant response rating, Barnyardgrass
  pest or weed control at 500 g/ha: 80%

## CSc1ccccc1NC(=O)[C@H]1C(=O)N(C)C[C@@H]1c1ccc(F)cc1 [Compound 1236]
Rice (Oryra sativa)
  pest or weed control at 250 g/ha: 35%
[1]
  pest or weed control at 250 g/ha: 0%
[2]
  pest or weed control at 250 g/ha: 65%
[3]
  pest or weed control at 250 g/ha: 100%
[4]; [13]
  pest or weed control at 125 g/ha: 0%
[4]; postemergence, 0 to 100 scale, 0 is no effect, 100 is complete control, read-out: Ragweed plant response rating
  pest or weed control at 500 g/ha: 40%
Corn (Zea mays); [13]
  plant injury at 125 g/ha: 60%
Corn (Zea mays); 500 g ai/ha, postemergence, 0 to 100 scale, 0 is no effect, 100 is complete control, read-out: Corn plant response rating
  plant injury at 500 g/ha: 90%
Kochia (Kochia scoparia); [13]
  pest or weed control at 125 g/ha: 20%
Kochia (Kochia scoparia); postemergence, 0 to 100 scale, 0 is no effect, 100 is complete control, read-out: Kochia plant response rating
  pest or weed control at 500 g/ha: 30%
[5]; [13]
  pest or weed control at 125 g/ha: 30%
[5]; postemergence, 0 to 100 scale, 0 is no effect, 100 is complete control, read-out: Foxtail, Giant plant response rating
  pest or weed control at 500 g/ha: 90%
[6]; [13]
  pest or weed control at 125 g/ha: 20%
[6]; postemergence, 0 to 100 scale, 0 is no effect, 100 is complete control, read-out: Pigweed plant response rating
  pest or weed control at 500 g/ha: 40%
[7]; [13]
  pest or weed control at 125 g/ha: 0%
[7]; postemergence, 0 to 100 scale, 0 is no effect, 100 is complete control, read-out: Ryegrass, Italian plant response rating
  pest or weed control at 500 g/ha: 50%
[8]; [13]
  plant injury at 125 g/ha: 0%
[9]; [13]
  pest or weed control at 125 g/ha: 30%
[9]; postemergence, 0 to 100 scale, 0 is no effect, 100 is complete control, read-out: Blackgrass plant response rating
  pest or weed control at 500 g/ha: 30%
[10]; [13]
  pest or weed control at 125 g/ha: 50%
[10]; postemergence, 0 to 100 scale, 0 is no effect, 100 is complete control, read-out: Galium plant response rating
  pest or weed control at 500 g/ha: 60%
[11]; postemergence, visual injury vs untreated controls after approx. 10 d, 0 = no effect, 100 = complete control, read-out: Barnyardgrass plant response rating (0 to 100 scale)
  pest or weed control at 125 g/ha: 100%
[11]; postemergence, 0 to 100 scale, 0 is no effect, 100 is complete control, read-out: Barnyardgrass plant response rating
  pest or weed control at 500 g/ha: 100%
